Columns and labels:
5-LO [1] = target: T1, 5-LO (Homo sapiens, UniProt P09917); experiment: Test a): in vitro heparinised human blood challenged with calcium ionophore A23187, radioimmunoassay of LTB₄; assay type: cell-based; settings: heparinised human blood, A23187 challenge; read-out: IC₅₀ against LTB₄ in test a)
T1 construct: incubating a test compound with heparinised human blood, prior to challenge with the calcium ionophore A23187; endogenous in cells; host or cells: heparinised human whole blood (blood cells)
T1 sequence (P09917 1-674): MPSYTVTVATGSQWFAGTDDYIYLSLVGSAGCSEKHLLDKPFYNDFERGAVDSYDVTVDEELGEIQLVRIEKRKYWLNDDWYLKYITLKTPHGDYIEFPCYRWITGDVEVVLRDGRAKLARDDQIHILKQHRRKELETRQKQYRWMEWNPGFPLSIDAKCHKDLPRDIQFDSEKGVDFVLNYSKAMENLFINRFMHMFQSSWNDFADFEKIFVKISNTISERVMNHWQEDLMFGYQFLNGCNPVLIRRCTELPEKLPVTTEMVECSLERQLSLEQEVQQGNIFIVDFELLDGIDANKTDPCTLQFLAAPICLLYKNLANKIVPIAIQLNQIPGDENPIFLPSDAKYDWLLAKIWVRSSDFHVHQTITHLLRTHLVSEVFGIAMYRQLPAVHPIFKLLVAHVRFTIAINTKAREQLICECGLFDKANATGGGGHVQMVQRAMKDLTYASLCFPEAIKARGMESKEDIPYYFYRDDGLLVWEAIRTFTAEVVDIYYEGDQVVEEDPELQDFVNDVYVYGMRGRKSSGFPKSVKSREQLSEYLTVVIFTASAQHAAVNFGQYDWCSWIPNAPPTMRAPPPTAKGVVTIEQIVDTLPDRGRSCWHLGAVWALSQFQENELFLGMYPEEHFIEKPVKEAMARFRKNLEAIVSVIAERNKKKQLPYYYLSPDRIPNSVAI
From the text: As stated previously, the compounds of the formula I are inhibitors of the enzyme 5-LO. […] J. Pharmacol., 1985, 84, 34P) which involve the use of a protein-LTB₄ conjugate produced using the procedure of Young et alia (Prostaglandins, 1983, 26(4), 605-613). The effects of a test compound on the enzyme cyclooxygenase (which is involved in the alternative metabolic pathway for arachidonic acid and gives rise to prostaglandins, thromboxanes and related metabolites) may be measured at the same time using the specific radioimmunoassay for thromboxane B₂(TxB₂) described by Carey and Forder (see above). This test provides an indication of the effects of a test compound against 5-LO and also cyclooxygenase in the presence of blood cells and proteins. It permits the selectivity of the inhibitory effect on 5-LO or cyclooxygenase to be assessed. • b) An ex vivo assay system, which is a variation of test a) above, involving administration to a group of rats of a test compound (usually orally as the suspension produced when a solution of the test compound in dimethylsulphoxide is added to carboxymethylcellulose), blood collection, heparinisation, challenge with A23187 and radioimmunoassay of LTB₄ and TxB₂. […]

5-LO [2] = experiment: Test c): in vivo zymosan-induced LTB₄ liberation in a subcutaneous air pouch of male rats; settings: rat air pouch, 3 hours

In the case of `COC1(c2cc(F)cc(Sc3ccc(CON=C(C)C)cc3)c2)CCOCC1` [Example 1, acetone 0-{4-[5-fluoro-3-(4-methoxytetrahydropyran-4-yl)phenylthio]benzyl}oxime], the IC50 (5-LO [1]) is reported as 150 nM and the “oral ED₅₀ versus LTB₄ in test c)” value (5-LO [2]) is reported as “approximately 1 mg/kg”.
With `COC1(c2cc(F)cc(Sc3ccc(C(C)ON=C(C)C)cc3)c2)CCOCC1` (stereo not drawn) [Example 2, acetone 0-{4-[5-fluoro-3-(4-methoxytetrahydropyran-4-yl)phenylthio)-α-methylbenzyl}oxime] the IC50 (5-LO [1]) was 90 nM and the “oral ED₅₀ versus LTB₄ in test c)” value (5-LO [2]) was “approximately 1.5 mg/kg”.

Source: EP0570196B1, “Oxime derivatives” (ZENECA LIMITED, priority 1992, dated 1993)
